The test system of experiment [1] is NCI-H2122. The experiment can be described thus: relative IC50 of cell viability (CellTiter-Glo); higher = less potent. As for the experimental part: (§1)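 CellTiter-Glo proliferation assay in KRAS G12C mutant NCI-H2122 (72 h), SW837 (144 h) and NCI-H358 cells in 384-well plates. Monotherapy dose response was fitted with a four-parameter curve after normalisation to DMSO controls (% of control, PoC). IC50 is the relative IC50, averaged over replicates. Bottom is the fitted lower plateau in %PoC; Max.Conc. is the top dose tested.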
Background: In ATP-based viability assays light output follows the ATP content of the culture.

The test system of experiment [2] is SW837. The description is as above. The procedure:
as §1

Experiment [3] has as its system NCI-H2122. The experiment can be described thus: fitted bottom plateau of viability curve, % of DMSO control; higher = less maximal inhibition; extreme values may be limits of the assay. The procedure:
as §1

The test system of experiment [4] is SW837. The experiment is described as above. The procedure:
as §1

In the case of `CCc1cnn2c(NCc3ccc[n+]([O-])c3)cc(N3CCCC[C@H]3CCO)nc12` (top concentration tested 1000 nM), the “relative IC50 of cell viability” value worked out at 8.91 nM in experiment [1] and 25.9 nM in experiment [2]. Besides, the “fitted bottom plateau of viability curve” value turned out to be 3.3% in experiment [3] and 5.65% in experiment [4].
As for `COc1ccc2nc3ccc(OC)cc3c(SCCCN)c2c1` (top concentration tested 10000 nM), the “relative IC50 of cell viability” value in experiment [1] turned out to be 9650 nM. The figures for the “fitted bottom plateau of viability curve” value in experiment [3] and in experiment [4] were 59% and 84.2%, respectively.
Consider `C[C@@H](Oc1cc(-c2cnn(C3CCNCC3)c2)cnc1N)c1c(Cl)ccc(F)c1Cl` (top concentration tested 10000 nM), for which the “relative IC50 of cell viability” value in experiment [1] is 1230 nM. The “fitted bottom plateau of viability curve” value in experiment [3] is 4.25%; in experiment [4] it was 31.9%.
As for `Cc1[nH]c(/C=C2\C(=O)Nc3ccc(S(=O)(=O)Cc4c(Cl)cccc4Cl)cc32)c(C)c1C(=O)N1CCC[C@@H]1CN1CCCC1` (top concentration tested 10000 nM), the results for the “relative IC50 of cell viability” value in experiment [1] and in experiment [2] were 3030 nM and 2390 nM, respectively. In addition, the “fitted bottom plateau of viability curve” value in experiment [3] was 0.553%; in experiment [4], 1.78%.
`O=[N+]([O-])c1ccc(NCCNc2ncc(-c3ncc[nH]3)c(-c3ccc(Cl)cc3Cl)n2)nc1` (top concentration tested 10000 nM): in experiment [1], the “relative IC50 of cell viability” value stood at 8950 nM. Besides, the “fitted bottom plateau of viability curve” value amounted to 43.5% in experiment [3] and 91.7% in experiment [4].
As to `CC1(C)CCC(CN2CCN(c3ccc(C(=O)NS(=O)(=O)c4ccc(NCC5CCOCC5)c([N+](=O)[O-])c4)c(Oc4cnc5[nH]ccc5c4)c3)CC2)=C(c2ccc(Cl)cc2)C1` [ABT-199] (top concentration tested 10000 nM), the “relative IC50 of cell viability” value in experiment [1] is 8090 nM. Besides, the entries for the “fitted bottom plateau of viability curve” value in experiment [3] and in experiment [4] were 65.6% and 95.3%, respectively.
The matching figures for `CO[C@H]1/C=C/C[C@H](C)[C@@H](C)S(=O)(=O)NC(=O)c2ccc3c(c2)N(C[C@@H]2CC[C@H]21)C[C@@]1(CCCc2cc(Cl)ccc21)CO3` [AMG176] (top concentration tested 10000 nM): 3120 nM, 45.9% and 96.3%.
On the same counts, the results for `COc1cc(OC2CCN(C)CC2)ccc1Nc1ncc2c(n1)n(C1CCCC1)c(=O)n2C` [AZ3146] (top concentration tested 10000 nM) are 6060 nM, 39.4% and 57.4%.
As to `Nc1ncn([C@@H]2O[C@H](CO)[C@@H](O)[C@H]2O)c(=O)n1` [Azacitidine] (top concentration tested 9999.8 nM), the “relative IC50 of cell viability” value in experiment [1] was determined as 1940 nM. The “fitted bottom plateau of viability curve” value came out at 14.4% in experiment [3] and 93% in experiment [4].
On to `CO[C@H]1CC[C@H](n2c([C@@H]3CCCC(=O)N3c3ccc(F)c(F)c3)nc3cc(-c4c(C)noc4C)ccc32)CC1` [CCS1477] (top concentration tested 10000 nM), for which, in experiment [2], the “relative IC50 of cell viability” value is 1900 nM. For the same compound, the “fitted bottom plateau of viability curve” value turned out to be 77.8% in experiment [3] and 36.9% in experiment [4].
Regarding `Nc1ncn([C@H]2C[C@H](O)[C@@H](CO)O2)c(=O)n1` [Decitabine] (top concentration tested 10000 nM), the “relative IC50 of cell viability” value in experiment [1] was found to be 1360 nM. The “fitted bottom plateau of viability curve” value in experiment [3] is 57.7%; in experiment [4], 54%.
Take `O=c1[nH]cc(F)c(=O)[nH]1` [Fluorouracil (5-FU)] (top concentration tested 1000.2 nM): the “relative IC50 of cell viability” value in experiment [1] was 945 nM. Also, the results for the “fitted bottom plateau of viability curve” value in experiment [3] and in experiment [4] were 64.6% and 96.6%, respectively.
The matching figures for `COc1ncc(-c2nc3c(n2C(C)C)[C@H](c2ccc(Cl)cc2)N(c2cc(Cl)cn(C)c2=O)C3=O)c(OC)n1` [HDM-201] (top concentration tested 9999.9 nM): 126 nM, 25.1% and 84.1%.
As to `CC(C)NC[C@@H](C(=O)N1CCN(c2ncnc3c2[C@H](C)C[C@H]3O)CC1)c1ccc(Cl)cc1` [Ipatasertib] (top concentration tested 10000 nM), the “relative IC50 of cell viability” value in experiment [1] stood at 642 nM. In addition, the “fitted bottom plateau of viability curve” value in experiment [3] was 57.9%; in experiment [4], 85.8%.
Take `O=C(/C=C\n1cnc(-c2cc(C(F)(F)F)cc(C(F)(F)F)c2)n1)NNc1cnccn1` [KPT-330] (top concentration tested 50000 nM): the “relative IC50 of cell viability” value in experiment [2] is 7020 nM. Further, the figures for the “fitted bottom plateau of viability curve” value in experiment [3] and in experiment [4] were 91.8% and 20.6%, respectively.
As to `COc1ccccc1-c1cc(Nc2cccc(CS(N)(=O)=O)c2)ncn1` [LDC-067] (top concentration tested 10000 nM), in experiment [1], the “relative IC50 of cell viability” value worked out at 6690 nM. The “fitted bottom plateau of viability curve” value in experiment [3] was 47.3%; in experiment [4] it was 87.9%.
Take `Cc1ccc(NC(=O)c2ccnc(C(F)(F)F)c2)cc1-c1cc(OCCO)nc(N2CCOCC2)c1` [LXH-254] (top concentration tested 1000 nM): the “relative IC50 of cell viability” value in experiment [1] came out at 200 nM. For the same compound, the “fitted bottom plateau of viability curve” value in experiment [3] worked out at 63.6%; in experiment [4], 94.2%.
Regarding `N[C@@H](Cc1ccc(N(CCCl)CCCl)cc1)C(=O)O` [Melphalan] (top concentration tested 10000 nM), in experiment [1], the “relative IC50 of cell viability” value was 2140 nM. Also, the “fitted bottom plateau of viability curve” value in experiment [3] was 46.6%; in experiment [4], 52.1%.
With `CCc1cccc(CC)c1NC(=O)c1nn(C)c2c1CCc1cnc(Nc3ccc(C(=O)NC4CCN(C)CC4)cc3OC(F)(F)F)nc1-2` [NMS-P715] (top concentration tested 10000 nM), in experiment [1], the “relative IC50 of cell viability” value is 3960 nM. For the same compound, the “fitted bottom plateau of viability curve” value was 48.7% in experiment [3] and 58.9% in experiment [4].
As for `O=c1cc(N2CCOCC2)oc2c(-c3cccc4c3sc3ccccc34)cccc12` [NU-7441] (top concentration tested 10000 nM), the “relative IC50 of cell viability” value in experiment [1] was found to be 3430 nM. For the same compound, the “fitted bottom plateau of viability curve” value in experiment [3] amounted to 42.8%; in experiment [4], 70.7%.
The matching figures for `Cc1cn(-c2cc(NC(=O)c3ccc(C)c(Nc4nccc(-c5cccnc5)n4)c3)cc(C(F)(F)F)c2)cn1` [Nilotinib] (top concentration tested 10000 nM): 2510 nM, 14% and 68.8%.
On the same counts, the results for `Nc1nc2[nH]cc(CCc3ccc(C(=O)N[C@@H](CCC(=O)O)C(=O)O)cc3)c2c(=O)[nH]1` [Pemetrexed] (top concentration tested 10000 nM) are 21.4 nM, 43.3% and 90.7%.
On the same counts, the results for `Cc1ncc(NC(=O)c2cccc(C(F)(F)F)c2)cc1-c1cnc(OC2CCOCC2)c(N2CCOCC2)c1` [RAF-709] (top concentration tested 10000 nM) are 1100 nM, 11.1% and 87.9%.
As to `COc1cc(OC)c(/C=C/S(=O)(=O)Cc2ccc(OC)c(NCC(=O)O)c2)c(OC)c1` [Rigosertib] (top concentration tested 1000.1 nM), the “relative IC50 of cell viability” value in experiment [1] was 123 nM. Also, the entries for the “fitted bottom plateau of viability curve” value in experiment [3] and in experiment [4] were 5.86% and 58.2%, respectively.
Take `CCN(CC)CCNC(=O)c1c(C)[nH]c(/C=C2\C(=O)Nc3ccc(F)cc32)c1C` [Sunitinib] (top concentration tested 9999.9 nM): the “relative IC50 of cell viability” value in experiment [1] amounted to 4650 nM. For the same compound, the “fitted bottom plateau of viability curve” value in experiment [3] turned out to be 31.4%; in experiment [4] it was 59.9%.
On the same counts, the results for `CC(C)C[C@@H](C(=O)N[C@H](C(=O)OC1CCCC1)c1ccccc1)[C@H](O)C(=O)NO` [Tosedostat] (top concentration tested 9999.9 nM) are 776 nM, 51.2% and 92.2%.
The matching figures for `COc1cc2c(NC3CCN(C(C)C)CC3)nc(C3CCCCC3)nc2cc1OCCCN1CCCC1` [UNC0638] (top concentration tested 10000 nM): 8590 nM, 46.7% and 88.9%.
The matching figures for `CS(=O)(=O)c1ccc(-c2cnc(N)c(C(=O)Nc3ccccc3)n2)cc1` [VE-821] (top concentration tested 10000 nM): 2140 nM, 34.2% and 82.4%.
For `O=C(CCCCCCC(=O)Nc1ccccc1)NO` [Vorinostat] (top concentration tested 10000 nM), the “relative IC50 of cell viability” value in experiment [1] was found to be 2440 nM. In addition, the figures for the “fitted bottom plateau of viability curve” value in experiment [3] and in experiment [4] were 10.7% and 25%, respectively.
On the same counts, the results for `COc1cc2nccc(Oc3ccc(NC(=O)C4(C(=O)Nc5ccc(F)cc5)CC4)cc3)c2cc1OC` [XL-184] (top concentration tested 9999.9 nM) are 8090 nM, 35.3% and 55.8%.
